Source: ChEMBL document CHEMBL5244223, “l,8-Naphthalimide based DNA intercalators and anticancer agents. A systematic review from 2007 to 2017” (Eur J Med Chem, 2018)
Each block holds one compound with its values, some of them ahead of it.

Tests used:
SK-MEL-28 = test: Growth inhibition against human SK-MEL-28 cells at 10 uM incubated for 48 hrs by sulforhodamine B reagent assay; format: functional; conditions: read-out: GI
MCF7 [1] = test: Cytotoxicity against human MCF7 cells assessed as inhibition of cell growth incubated for 24 hrs by CCK-8 assay; format: functional, cell-based; conditions: MCF7, 24 h
HL-60 [2] = test: Cytotoxicity against human HL-60 cells assessed as inhibition of cell growth incubated for 96 hrs by MTT assay; format: functional, cell-based; conditions: HL-60, 96 h
U-937 = test: Cytotoxicity against human U-937 cells assessed as inhibition of cell growth incubated for 96 hrs by MTT assay; format: functional, cell-based; conditions: U-937, 96 h
HeLa [3] = test: Antiproliferative activity against human HeLa cells assessed as inhibition of cell growth; format: functional, cell-based
Calf thymus DNA [4] = test: Binding affinity to calf thymus DNA assessed as DNA intercalation by measuring change in melting temperature by thermal denaturation assay; format: nucleic-acid assay; conditions: Bos taurus
HL-60 [5] = test: Antiproliferative activity against human HL-60 cells assessed as inhibition of cell growth; format: functional, cell-based
A549 [6] = test: Antiproliferative activity against human A549 cells assessed as inhibition of cell growth; format: functional, cell-based
HeLa [7] = test: Cytotoxicity against human HeLa cells assessed as inhibition of cell growth by MTT assay; format: functional, cell-based
MCF7 [8] = test: Cytotoxicity against human MCF7 cells assessed as inhibition of cell growth by MTT assay; format: functional, cell-based
A549 [9] = test: Cytotoxicity against human A549 cells assessed as inhibition of cell growth by MTT assay; format: functional, cell-based
Calf thymus DNA [10] = test: Binding affinity to calf thymus DNA assessed as DNA intercalation by measuring binding constant by fluorescence spectroscopic assay; format: nucleic-acid assay; conditions: Bos taurus
SGC-7901 = test: Cytotoxicity against human SGC-7901 cells assessed as inhibition of cell growth by MTT assay; format: functional, cell-based
HeLa [11] = test: Antiproliferative activity against human HeLa cells assessed as inhibition of cell proliferation incubated for 48 hrs by MTT assay; format: functional, cell-based
SMMC-7721 = test: Antiproliferative activity against human SMMC-7721 cells assessed as inhibition of cell proliferation incubated for 48 hrs by MTT assay; format: functional, cell-based; conditions: SMMC-7721, 48 h
Calf thymus DNA [12] = test: Binding affinity to calf thymus DNA assessed as binding constant by UV-Vis spectroscopic analysis; format: nucleic-acid assay; conditions: Bos taurus
MCF7 [13] = test: Antiproliferative activity against human MCF7 cells assessed as inhibition of cell proliferation incubated for 48 hrs by MTT assay; format: functional, cell-based; conditions: MCF7, 48 h
MCF7 [14] = test: Antiproliferative activity against human MCF7 cells assessed as inhibition of cell proliferation; format: functional, cell-based
Calf thymus DNA [15] = test: Binding affinity to calf thymus DNA assessed as DNA intercalation by measuring change in melting temperature by thermal denaturation assay based UV-Vis spectrophotometric analysis; format: nucleic-acid assay; conditions: Bos taurus
HT-29 = test: Antiproliferative activity against human HT-29 cells assessed as inhibition of cell proliferation; format: functional, cell-based
PANC-1 = test: Cytotoxicity against human PANC-1 cells assessed as inhibition of cell growth incubated for 24 hrs by XTT assay; format: functional, cell-based; conditions: PANC-1, 24 h
HCT-116 = test: Cytotoxicity against human HCT-116 cells assessed as inhibition of cell growth incubated for 24 hrs by XTT assay; format: functional, cell-based; conditions: HCT-116, 24 h
Calf thymus DNA [16] = test: Binding affinity to calf thymus DNA assessed as binding constant by fluorescence based EtBr-displacement based UV-Vis spectroscopic analysis; format: nucleic-acid assay; conditions: Bos taurus

SMILES: O=C1c2cccc3cccc(c23)C(=O)N1CCCCCN1CCN(CCCCCOc2ccc(-c3nc4ccc(N5CCOCC5)cc4[nH]3)cc2)CC1
- inhibition of growth at 10 µM (SK-MEL-28): 50%

SMILES: CN(C)CCCN1C(=O)c2cccc3c(NCCNC(=N)N)ccc(c23)C1=O
- IC50 (MCF7 [1]): 10400 nM

SMILES: O=C1c2cccc3c([N+](=O)[O-])ccc(c23)C(=O)N1CCCl
- IC50 (HL-60 [2]): 300 nM
- IC50 (U-937): 300 nM

SMILES: O=C1c2cccc3c([N+](=O)[O-])ccc(c23)C(=O)N1CCCO
- IC50 (HL-60 [2]): 700 nM
- IC50 (U-937): 700 nM

SMILES: CN(C)CCN1C(=O)c2cccc3c(NCCNCCN)ccc(c23)C1=O
- IC50 (HeLa [3]): 13100 nM
- ΔTm (Calf thymus DNA [4]): 11.8 °C
- IC50 (HL-60 [5]): 13100 nM
- IC50 (A549 [6]): 3160 nM

SMILES: CN(C)CCCNc1ccc2c3c(cccc13)C(=O)N(CCCN(C)C)C2=O
- IC50 (MCF7 [1]): 2040 nM

SMILES: O=C1c2cccc3cccc(c23)C(=O)N1CCCCN1CCN(CCCCOc2ccc(-c3nc4ccc(N5CCOCC5)cc4[nH]3)cc2)CC1
- inhibition of growth at 10 µM (SK-MEL-28): 50%

SMILES: CN(C)CCN1C(=O)c2cccc3c(N(CCCl)CCCl)ccc(c23)C1=O
- IC50 (PANC-1): 1900 nM
- IC50 (HCT-116): 1900 nM

SMILES: CN(C)CCN1C(=O)c2cccc3c(N(C)CCCl)ccc(c23)C1=O
- IC50 (PANC-1): 1900 nM
- IC50 (HCT-116): 1900 nM

SMILES: CN(C)CCCN1C(=O)c2cccc3c(NCCN)ccc(c23)C1=O
- IC50 (MCF7 [1]): 56600 nM

SMILES: CN1CCN(c2ccc3nc(-c4ccc(OCCCCN5CCN(CCCCN6C(=O)c7cccc8cccc(c78)C6=O)CC5)cc4)[nH]c3c2)CC1
- inhibition of growth at 10 µM (SK-MEL-28): 50%

SMILES: O=C1c2cccc3c([N+](=O)[O-])ccc(c23)C(=O)N1CCO
- IC50 (HL-60 [2]): 700 nM
- IC50 (U-937): 700 nM

SMILES: O=C1c2cccc3c([N+](=O)[O-])ccc(c23)C(=O)N1CCCCl
- IC50 (HL-60 [2]): 300 nM
- IC50 (U-937): 300 nM

SMILES: COS(=O)(=O)CCCCSc1ccc2c3c(cccc13)C(=O)N(CCN(C)C)C2=O
- IC50 (PANC-1): 11700 nM
- IC50 (HCT-116): 11700 nM

The next lines start with results.

- IC50 (HeLa [3]): 13100 nM
- ΔTm (Calf thymus DNA [4]): 11.8 °C
- IC50 (HL-60 [5]): 13100 nM
- IC50 (A549 [6]): 13100 nM
SMILES: CN(C)CCN1C(=O)c2cccc3c(NCCNCCNCCNCCN)ccc(c23)C1=O

- Kb (Calf thymus DNA [10]): 1.8 10^4/M
SMILES: CN(C)CCN1C(=O)c2cccc3c(N4CC[C@@H](O)C4)ccc(c23)C1=O
- IC50 (HeLa [7]): 870 nM
- IC50 (MCF7 [8]): 870 nM
- IC50 (A549 [9]): 870 nM
- IC50 (SGC-7901): 870 nM

- IC50 (HeLa [11]): 300 nM
- IC50 (SMMC-7721): 300 nM
- Kb (Calf thymus DNA [12]): 5.1 10^5/M
- IC50 (MCF7 [13]): 300 nM
SMILES: CN(C)CCN1C(=O)c2cccc3cc(-n4ccnn4)cc(c23)C1=O

- IC50 (MCF7 [14]): 4600 nM
- ΔTm (Calf thymus DNA [15]): 3 °C
- IC50 (HT-29): 4600 nM
SMILES: CC[n+]1ccn(CCCN2C(=O)c3cccc4cccc(c34)C2=O)c1

- K (Calf thymus DNA [16]): 2.3 10^6/M
SMILES: Nc1ccc2c3c(cccc13)C(=O)N(c1cccc(-c3cc[n+]4c(c3)-c3cccc[n+]3CC4)c1)C2=O

- IC50 (MCF7 [14]): 4600 nM
- ΔTm (Calf thymus DNA [15]): 3 °C
- IC50 (HT-29): 4600 nM
SMILES: O=C1c2cccc3cccc(c23)C(=O)N1CCCn1cc[n+](Cc2ccccc2)c1

- K (Calf thymus DNA [16]): 2.8 10^6/M
SMILES: Cc1ccc(-c2cc[n+]3c(c2)-c2cccc[n+]2CC3)cc1

- IC50 (MCF7 [14]): 4600 nM
- ΔTm (Calf thymus DNA [15]): 3 °C
- IC50 (HT-29): 4600 nM
SMILES: CCSc1ccc2c3c(cccc13)C(=O)N(CCCn1cc[n+](C)c1)C2=O

- IC50 (HeLa [3]): 13100 nM
- ΔTm (Calf thymus DNA [4]): 11.8 °C
- IC50 (HL-60 [5]): 13100 nM
- IC50 (A549 [6]): 13100 nM
SMILES: CN(C)CCN1C(=O)c2cccc3c(NCCNCCNCCN)ccc(c23)C1=O

- Kb (Calf thymus DNA [10]): 1.8 10^4/M
SMILES: CN(C)CCN1C(=O)c2cccc3c(N4CCC[C@@H]4CO)ccc(c23)C1=O
- IC50 (HeLa [7]): 870 nM
- IC50 (MCF7 [8]): 870 nM
- IC50 (A549 [9]): 870 nM
- IC50 (SGC-7901): 870 nM

- Kb (Calf thymus DNA [10]): 1.8 10^4/M
SMILES: CN(C)CCN1C(=O)c2cccc3c(N4CCC[C@H]4CO)ccc(c23)C1=O
- IC50 (HeLa [7]): 870 nM
- IC50 (MCF7 [8]): 870 nM
- IC50 (A549 [9]): 870 nM
- IC50 (SGC-7901): 870 nM

- IC50 (MCF7 [14]): 4600 nM
- ΔTm (Calf thymus DNA [15]): 3 °C
- IC50 (HT-29): 4600 nM
SMILES: C[n+]1ccn(CCCN2C(=O)c3cccc4cccc(c34)C2=O)c1

- Kb (Calf thymus DNA [10]): 1.8 10^4/M
SMILES: CN(C)CCN1C(=O)c2cccc3c(N4CC[C@H](O)C4)ccc(c23)C1=O
- IC50 (HeLa [7]): 870 nM
- IC50 (MCF7 [8]): 870 nM
- IC50 (A549 [9]): 870 nM
- IC50 (SGC-7901): 870 nM
